The target in experiment [1] is T1, human GLP-1 receptor (hGLP-1R) (Homo sapiens, UniProt P43220).
T1 construct: expressed in transfected cells; crude membranes
The experiment can be described thus: [125I]-GLP-1 binding, SPA with membranes of HEK293 cells expressing hGLP-1R.

A further experiment deals with T2, hGCGR (Homo sapiens, UniProt P47871).
T2 construct: expressed in transfected cells
The experiment can be described thus: Functional cAMP formation (HTRF) in HEK-293 clonal cells expressing hGCGR, 0.1% bovine casein, without or with 1.0% human serum albumin. Type of experiment: cell-based. The settings on record: cAMP, 37° C. An outline of the steps:
(§1)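 Cells were stimulated with peptide for 30 min at 37° C, then intracellular cAMP was measured by competitive HTRF (665/620 nm ratio) and converted to nM using a cAMP standard curve. Relative EC50 and Emax came from four-parameter logistic fits of percent maximal response against peptide concentration.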
Background: Changes in cAMP serve as a functional read-out for many G protein-coupled receptors.

Another experiment deals with hGLP-1R (Homo sapiens, UniProt P43220). The experiment can be described thus: Functional cAMP formation (HTRF) in HEK-293 clonal cells expressing hGLP-1R, 0.1% bovine casein, without or with 1.0% human serum albumin. The arrangement: expressed in transfected cells. The conditions noted are these: for Emax: percent of maximal response to GLP-1(7-36)NH2; for EC50: cAMP, 0.1% bovine casein (no human serum albumin), geometric mean. Type of experiment: cell-based. A digest of the protocol:
as §1

The next experiment concerns the target T3, hGIPR (Homo sapiens, UniProt P48546).
T3 construct: expressed in transfected cells
T3 sequence (P48546 22-466): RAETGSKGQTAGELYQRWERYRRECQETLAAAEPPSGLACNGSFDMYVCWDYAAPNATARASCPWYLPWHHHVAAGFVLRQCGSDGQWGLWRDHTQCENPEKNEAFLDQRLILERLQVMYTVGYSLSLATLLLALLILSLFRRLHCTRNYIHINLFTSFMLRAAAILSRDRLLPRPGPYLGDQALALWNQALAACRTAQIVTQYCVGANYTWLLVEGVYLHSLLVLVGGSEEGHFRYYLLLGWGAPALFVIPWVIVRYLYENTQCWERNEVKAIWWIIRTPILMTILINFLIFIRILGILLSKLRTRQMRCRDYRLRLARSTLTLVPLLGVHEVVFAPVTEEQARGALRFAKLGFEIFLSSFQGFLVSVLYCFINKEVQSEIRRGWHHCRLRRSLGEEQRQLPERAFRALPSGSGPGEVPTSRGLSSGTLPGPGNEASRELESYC
The experiment can be described thus: Functional cAMP formation (HTRF) in HEK-293 clonal cells expressing hGIPR, 0.1% bovine casein, without or with 1.0% human serum albumin. Type of experiment: cell-based. The conditions noted are these: for Emax: percent of maximal response to GIP(1-42)NH2; for EC50: cAMP, 0.1% bovine casein (no human serum albumin), geometric mean. An outline of the steps: as §1

Where two headings read alike, the source gives them in different places.

T2 sequence (P47871 26-477): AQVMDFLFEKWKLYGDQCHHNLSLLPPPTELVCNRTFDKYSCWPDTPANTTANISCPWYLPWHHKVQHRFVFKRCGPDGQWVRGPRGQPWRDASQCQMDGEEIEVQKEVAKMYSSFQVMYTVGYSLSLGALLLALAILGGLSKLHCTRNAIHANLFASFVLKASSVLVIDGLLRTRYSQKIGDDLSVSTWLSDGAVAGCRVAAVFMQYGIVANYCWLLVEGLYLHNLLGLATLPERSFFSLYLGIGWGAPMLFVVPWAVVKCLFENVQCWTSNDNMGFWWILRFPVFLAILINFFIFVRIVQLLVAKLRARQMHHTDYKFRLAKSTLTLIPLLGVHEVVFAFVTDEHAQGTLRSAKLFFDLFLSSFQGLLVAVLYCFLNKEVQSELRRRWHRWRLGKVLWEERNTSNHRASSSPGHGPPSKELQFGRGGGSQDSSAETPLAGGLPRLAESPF
Chain of hGLP-1R (P43220 24-463): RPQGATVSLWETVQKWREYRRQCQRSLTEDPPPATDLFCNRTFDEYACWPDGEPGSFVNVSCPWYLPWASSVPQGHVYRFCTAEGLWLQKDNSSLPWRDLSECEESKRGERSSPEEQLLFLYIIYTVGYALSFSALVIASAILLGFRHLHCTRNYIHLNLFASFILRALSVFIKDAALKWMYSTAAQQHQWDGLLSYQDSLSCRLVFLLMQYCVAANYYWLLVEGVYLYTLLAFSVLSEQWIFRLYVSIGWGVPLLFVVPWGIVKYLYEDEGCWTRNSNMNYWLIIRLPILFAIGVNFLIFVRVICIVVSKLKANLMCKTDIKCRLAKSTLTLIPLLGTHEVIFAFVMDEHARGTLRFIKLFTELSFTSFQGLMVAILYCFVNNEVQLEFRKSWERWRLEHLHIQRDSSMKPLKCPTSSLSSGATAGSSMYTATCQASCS
T1 sequence (P43220 24-463): as above

Usually Ki stands for a dissociation constant, usually derived from enzyme kinetics or from competition with a known ligand. The EC50 is the concentration giving half of the maximal effect. As a reminder, the Emax is the maximal effect, on the per cent scale that the assay sets. The compound `CC[C@H](C)[C@H](NC(=O)[C@H](CC(C)C)NC(=O)[C@](C)(Cc1ccc(O)cc1)NC(=O)[C@H](CCCCNC(=O)CCOCCOCCOCCOCCNC(=O)CC[C@H](NC(=O)CCCCCCCCCOc1ccc(C(=O)O)cc1)C(=O)O)NC(=O)[C@@H](NC(=O)[C@H](Cc1ccccc1)NC(=O)[C@H](CCCN)NC(=O)C(C)(C)NC(=O)[C@H](CCC(N)=O)NC(=O)[C@H](C)NC(=O)[C@H](CCC(N)=O)NC(=O)[C@H](CCCN)NC(=O)[C@H](CC(=O)O)NC(=O)[C@H](CC(C)C)NC(=O)[C@](C)(CC(C)C)NC(=O)[C@@H](NC(=O)C(C)(C)NC(=O)[C@H](Cc1ccncc1)NC(=O)[C@H](CC(=O)O)NC(=O)[C@H](CO)NC(=O)[C@@H](NC(=O)[C@](C)(Cc1ccccc1F)NC(=O)[C@@H](NC(=O)CNC(=O)[C@H](CCC(=O)O)NC(=O)C(C)(C)NC(=O)[C@@H](N)Cc1ccc(O)cc1)[C@@H](C)O)[C@@H](C)O)[C@@H](C)CC)[C@@H](C)CC)C(=O)N[C@@H](CCCCNC(=O)CCOCCOCCOCCOCCNC(=O)CC[C@H](NC(=O)CCCCCCCCCOc1ccc(C(=O)O)cc1)C(=O)O)C(=O)NCC(=O)NCC(=O)N1CCC[C@H]1C(=O)N[C@@H](CO)C(=O)N[C@@H](CO)C(=O)NCC(=O)N[C@@H](C)C(=O)N1CCC[C@H]1C(=O)N1CCC[C@H]1C(=O)N1CCC[C@H]1C(=O)N[C@@H](CO)C(N)=O` [Example 461] yielded an inhibition constant Ki in experiment [1] of 0.14 nM. Further, the EC50 on hGCGR (hGCGR EC50, nM (SEM, n), 0.1% bovine casein (no human serum albumin), geometric mean) is over 10100 nM; on hGCGR (hGCGR EC50, nM (SEM, n), 0.1% bovine casein and 1.0% human serum albumin, geometric mean (SEM, n)), over 10100 nM; at hGLP-1R (hGLP-1R EC50, nM (SEM, n), 37° C.), 0.173 nM; at hGIPR (hGIPR EC50, nM (SEM, n), 37° C.), 0.0103 nM. Further, the Emax at hGLP-1R (HEK293, read-out: hGLP-1R Emax, % ± SEM, cAMP, 37° C., 0.1% bovine casein and 1.0% human serum albumin) was determined as 105%; on hGIPR (HEK293, read-out: hGIPR Emax, % ± SEM, cAMP, 37° C., 0.1% bovine casein and 1.0% human serum albumin), 98.5%; on hGIPR (HEK293, read-out: hGIPR Emax, % ± SEM, cAMP, 37° C., 0.1% bovine casein, arithmetic mean), 100%.
Take `CCCCCCCCCCCC(=O)N[C@@H](CCC(=O)NCCOCCOCC(=O)NCCOCCOCC(=O)NCCOCCOCC(=O)NCCCC[C@H](NC(=O)[C@H](CCCN)NC(=O)[C@H](CC(=O)O)NC(=O)[C@H](CC(C)C)NC(=O)[C@](C)(CC(C)C)NC(=O)[C@@H](NC(=O)C(C)(C)NC(=O)[C@H](CCCCNC(=O)COCCOCCNC(=O)COCCOCCNC(=O)COCCOCCNC(=O)CC[C@H](NC(=O)CCCCCCCCCCC)C(=O)O)NC(=O)[C@H](CC(=O)O)NC(=O)[C@H](CO)NC(=O)[C@@H](NC(=O)[C@](C)(Cc1ccccc1F)NC(=O)[C@@H](NC(=O)CNC(=O)[C@H](CCC(=O)O)NC(=O)C(C)(C)NC(=O)[C@@H](N)Cc1ccc(O)cc1)[C@@H](C)O)[C@@H](C)O)[C@@H](C)CC)C(=O)N[C@@H](C)C(=O)N[C@@H](CCC(N)=O)C(=O)NC(C)(C)C(=O)N[C@@H](CCC(=O)O)C(=O)N[C@@](C)(Cc1ccccc1)C(=O)N[C@H](C(=O)N[C@H](CCC(=O)O)C(=O)N[C@@](C)(Cc1ccc(O)cc1)C(=O)N[C@@H](CC(C)C)C(=O)N[C@H](C(=O)N[C@@H](CCC(=O)O)C(=O)NCC(=O)NCC(=O)N1CCC[C@H]1C(=O)N[C@@H](CO)C(=O)N[C@@H](CO)C(=O)NCC(=O)N[C@@H](C)C(=O)N1CCC[C@H]1C(=O)N1CCC[C@H]1C(=O)N1CCC[C@H]1C(=O)N[C@@H](CO)C(N)=O)[C@@H](C)CC)[C@@H](C)CC)C(=O)O` [Example 436]: the Ki in experiment [1] (human GLP-1R, geometric mean (SEM, n), read-out: Binding Affinity Ki, nM (SEM, n) hGLP-1R) was 0.412 nM. The EC50 at hGCGR (0.1% bovine casein (no human serum albumin), geometric mean, read-out: hGCGR EC50, nM (SEM, n)) is over 9950 nM; at hGCGR (0.1% bovine casein and 1.0% human serum albumin, geometric mean (SEM, n), read-out: hGCGR EC50, nM (SEM, n)), over 9950 nM; at hGLP-1R (37° C., read-out: hGLP-1R EC50, nM (SEM, n)) it was 0.102 nM; on hGIPR (37° C., read-out: hGIPR EC50, nM (SEM, n)), 0.00714 nM. Also, the Emax was 100% on hGLP-1R (HEK293, cAMP, 37° C., 0.1% bovine casein and 1.0% human serum albumin, read-out: hGLP-1R Emax, % ± SEM); 98.9% on hGLP-1R (HEK293, cAMP, 37° C., 0.1% bovine casein, arithmetic mean, read-out: hGLP-1R Emax, % ± SEM); 96% on hGIPR (HEK293, cAMP, 37° C., 0.1% bovine casein and 1.0% human serum albumin, read-out: hGIPR Emax, % ± SEM).

Values taken from patent publication US20230265151A1, “GIP/GLP1 CO-AGONIST COMPOUNDS” (priority 2020, published 2023).
